Test results: patent publication US9676715B2, “Bis-indolic derivatives, a process for preparing the same and their uses as a drug” (UNIVERSITE JOSEPH FOURIER, priority 2011, dated 2017)
≈ marks a conversion by molar mass, not a printed value.

Key:
[1] = tested on: S. aureus ATCC 106414 (VISA); assay: MIC, microdilution method (9.1); format: cell-based, Staphylococcus aureus; details: Staphylococcus aureus, read after 18 h, read-out: MIC
Outline: (§1)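 CLSI broth microdilution in Mueller Hinton broth, final inoculum 5×10^5 CFU/ml, with two-fold compound dilutions (0.50-128 mg/L final). Incubation at 37° C in ambient air, or 5% CO2 with 10% sheep blood for fastidious species.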

S. aureus ATCC 25923 = assay: MIC, microdilution method (9.1); format: cell-based, Staphylococcus aureus; details: Staphylococcus aureus, ATCC25923, read after 18 h, read-out: MIC
Outline: as §1

S. aureus ATCC 29213 = assay: MIC, microdilution method (9.1); format: cell-based, Staphylococcus aureus; details: Staphylococcus aureus, ATCC29213, read after 18 h, read-out: MIC
Outline: as §1

[2] = tested on: S. aureus ATCC 33592 (MRSA); assay: MIC, microdilution method (9.1); format: cell-based, Staphylococcus aureus; details: Staphylococcus aureus, read after 18 h, read-out: MIC
Outline: as §1

S. aureus ATCC 6538 = assay: MIC, microdilution method (9.1); format: cell-based, Staphylococcus aureus; details: Staphylococcus aureus, ATCC6538, read after 18 h, read-out: MIC
Outline: as §1

S. aureus ATCC 9144 = assay: MIC, microdilution method (9.1); format: cell-based, Staphylococcus aureus; details: Staphylococcus aureus, ATCC9144, read after 18 h, read-out: MIC
Outline: as §1

S. aureus CIP 103428 = assay: MIC, microdilution method (9.1); format: cell-based, Staphylococcus aureus; details: Staphylococcus aureus, CIP103428, read after 18 h, read-out: MIC
Outline: as §1

[3] = tested on: S. aureus CIP 65.25 (MRSA); assay: MIC, microdilution method (9.1); format: cell-based, Staphylococcus aureus; details: Staphylococcus aureus, read after 18 h, read-out: MIC
Outline: as §1

S. aureus CIP 65.6 = assay: MIC, microdilution method (9.1); format: cell-based, Staphylococcus aureus; details: Staphylococcus aureus, CIP65, read after 18 h, read-out: MIC
Outline: as §1

S. aureus SA-1199B = assay: MIC, microdilution method (9.1); format: cell-based, Staphylococcus aureus; details: Staphylococcus aureus, SA1199B, 18 h
Outline: as §1

[4] = tested on: S. epidermidis ATCC 12228; assay: MIC, microdilution method (9.1); format: cell-based, Staphylococcus epidermidis; details: Staphylococcus epidermidis, ATCC12228, read after 18 h, read-out: MIC
Outline: as §1

[5] = tested on: S. epidermidis CIP 103627; assay: MIC, microdilution method (9.1); format: cell-based, Staphylococcus epidermidis; details: Staphylococcus epidermidis, CIP103627, read after 18 h, read-out: MIC
Outline: as §1

S. epidermidis CIP 81.55 = assay: MIC, microdilution method (9.1); format: cell-based, Staphylococcus epidermidis; details: Staphylococcus epidermidis, CIP81, read after 18 h, read-out: MIC
Outline: as §1

S. pneumoniae ATCC 6303 = assay: MIC, microdilution method (9.1); format: cell-based, Streptococcus pneumoniae; details: Streptococcus pneumoniae, ATCC6303, 10% sheep blood, 5% CO2, 18 h, read-out: MIC
Outline: as §1

[6] = tested on: S. agalactiae (group B) ATCC 12400; assay: MIC, microdilution method (9.1); format: cell-based, Streptococcus agalactiae; details: Streptococcus agalactiae, ATCC12400, 18 h, read-out: MIC
Outline: as §1

[7] = tested on: S. pyogenes (group A) CIP 104226; assay: MIC, microdilution method (9.1); format: cell-based, Streptococcus pyogenes; details: Streptococcus pyogenes, CIP104226, 18 h, read-out: MIC
Outline: as §1

S. mitis CIP 103335 = assay: MIC, microdilution method (9.1); format: cell-based, Streptococcus mitis; details: Streptococcus mitis, CIP103335, 18 h, read-out: MIC
Outline: as §1

E. faecium CIP 54.32 = assay: MIC, microdilution method (9.1); format: cell-based, Enterococcus faecium; details: Enterococcus faecium, CIP54, 18 h, read-out: MIC
Outline: as §1

E. faecalis ATCC 29212 = assay: MIC, microdilution method (9.1); format: cell-based, Enterococcus faecalis; details: Enterococcus faecalis, ATCC29212, 18 h, read-out: MIC
Outline: as §1

[8] = tested on: Acinetobacter baumanii ATCC 19606; assay: MIC, microdilution method (9.1); format: cell-based; details: Acinetobacter baumannii, ATCC19606, 18 h, read-out: MIC
Outline: as §1

[9] = tested on: Bacillus subtilis CIP 5262; assay: MIC, microdilution method (9.1); format: cell-based; details: CIP5262, 18 h, read-out: MIC
Outline: as §1

[10] = tested on: Enterobacter cloacae ATCC13047; assay: MIC, microdilution method (9.1); format: cell-based; details: 18 h
Outline: as §1

[11] = tested on: Escherichia coli ATCC 25922; assay: MIC, microdilution method (9.1); format: cell-based; details: ATCC25922, 18 h
Outline: as §1

[12] = tested on: Haemophilus influenzae ATCC 49766; assay: MIC, microdilution method (9.1); format: cell-based; details: ATCC49766; Haemophilus influenzae ATCC 49766; 10% sheep blood, 5% CO2; 18 h; read-out: MIC
Outline: as §1

[13] = tested on: Klebsiella pneumoniae API ATCC 35657; assay: MIC, microdilution method (9.1); format: cell-based; details: ATCC35657, 18 h, read-out: MIC
Outline: as §1

[14] = tested on: Listeria innocua CIP 80.11; assay: MIC, microdilution method (9.1); format: cell-based; details: CIP80, 18 h, read-out: MIC
Outline: as §1

[15] = tested on: Pseudomonas aeruginosa CIP 5933; assay: MIC, microdilution method (9.1); format: cell-based; details: CIP5933, 18 h, read-out: MIC
Outline: as §1

S. pneumoniae ATCC 49619 = assay: MIC, microdilution method (9.1); format: cell-based; details: Streptococcus pneumoniae, ATCC49619, 10% sheep blood, 5% CO2, 18 h
Outline: as §1

[16] = tested on: Serratia marcescens CIP 103551; assay: MIC, microdilution method (9.1); format: cell-based; details: CIP103551, 18 h
Outline: as §1

[17] = tested on: 29 bacterial strains belonging to 17 different species; assay: MIC determination, overall statements on the bacterial panel; format: cell-based; details: summary of MIC results
Protocol: The microdilution method recommended by the Clinical and Laboratory Standard Institute [M07-A8, Vol. 29, No. 2] was used. The activity of indolic compounds was tested against 29 bacterial strains belonging to 17 different species and 12 different genera (Staphylococcus, Streptococcus, Enterococcus, Listeria, Bacillus, Haemophilus, Escherichia, Klebsiella, Enterobacter, Serratia, Pseudomonas, and Acinetobacter). Bacterial inocula were prepared in Mueller Hinton broth (MH2, bioMérieux, Marcy L'Etoile, France), supplemented with 10% sheep blood for fastidious species (i.e., Streptococcus pneumoniae and Haemophilus influenzae). They were dispensed in 96 well microtiter plates (5×10^5 CFU/ml of final inoculum). Indolic compounds were added to the wells as to obtain two-fold serial concentrations (0.50-128 mg/L of final concentrations). Plates were incubated at 37° C. in ambient air, or at 37° C. in 5% CO2 enriched atmosphere for fastidious species. […] Drug-free cultures served as growth controls. Cultures receiving gentamicin, ciprofloxacin or cefotaxime served as positive controls.

## CC(C)(C)OC(=O)NCC(NC(=O)c1cccnc1)c1c[nH]c2ccc(Br)cc12 (stereo not drawn) [Compound 10, tert-Butyl (2-(5-bromo-1H-indol-3-yl)-2-(nicotinamido)ethyl) carbamate]
[1]
  MIC: > 128 µg/mL
S. aureus ATCC 25923
  MIC: > 128 µg/mL
S. aureus ATCC 29213
  MIC: 128 µg/mL (≈ 279 µM)
[2]
  MIC: > 128 µg/mL
S. aureus ATCC 6538
  MIC: 64 µg/mL (≈ 139 µM)
S. aureus ATCC 9144
  MIC: > 128 µg/mL
S. aureus CIP 103428
  MIC: 64 µg/mL (≈ 139 µM)
[3]
  MIC: > 128 µg/mL
S. aureus CIP 65.6
  MIC: > 128 µg/mL
S. aureus SA-1199B
  MIC: 64 µg/mL (≈ 139 µM)
[4]
  MIC: > 128 µg/mL
[5]
  MIC: > 128 µg/mL
S. epidermidis CIP 81.55
  MIC: > 128 µg/mL
S. pneumoniae ATCC 6303
  MIC: 128 µg/mL (≈ 279 µM)
[6]
  MIC: 128 µg/mL (≈ 279 µM)
[7]
  MIC: 128 µg/mL (≈ 279 µM)
S. mitis CIP 103335
  MIC: > 128 µg/mL
E. faecium CIP 54.32
  MIC: > 128 µg/mL
E. faecalis ATCC 29212
  MIC: > 128 µg/mL
[8]
  MIC: > 128 µg/mL
[9]
  MIC: 128 µg/mL (≈ 279 µM)
[10]
  MIC: > 128 µg/mL
[11]
  MIC: > 128 µg/mL
[12]
  MIC: > 128 µg/mL
[13]
  MIC: > 128 µg/mL
[14]
  MIC: > 128 µg/mL
[15]
  MIC: > 128 µg/mL
S. pneumoniae ATCC 49619
  MIC: 128 µg/mL (≈ 279 µM)
[16]
  MIC: > 128 µg/mL
[17]
  intrinsic antibacterial activity (in words): lack of intrinsic antibacterial activity
